Experimental data taken from patent publication US20120021432A1, “Phosphorylated NF45 Biomarkers, Antibodies And Methods Of Using Same” (ArQule, Inc., priority 2010, published 2012).

Key:
[1] = test system: cancer cells from a variety of tissues; normal cells from these tissues; conditions: cited from earlier work
CHK2 = CHK2 phosphorylation in treated cells; assay type: cell-based
Text: (§1) Immunoprecipitation and Western Blot Analysis: Cell lysate was used for immunoprecipitation using anti-NF90 antibody (#612154, BD Biosciences) or IgG as negative control. Samples then were separated into two equal potions: one blotted with anti-pNF45(T388)(#438) and another for anti-NF45 (K-22) (sc-133817, Santa Cruz Biotechnology). Other antibodies used in this study are pATM(S1981)(# 200-301-400, Rockland), DNA-PKcs (MA-370-P0, Thermo Scientific), ATM(2C1) (GTX70103, GeneTex), DNA-PK (S2506) (ab18192, Abcam), DNA-PK (T2609) (ab18356, Abcam), pCHK2(T68) (#2661, CST), b-actin (#5441, Sigma), g-H2AX (A300-081A, Bethyl).

DNA-PK = assay: Western blot, activation of DNA-PK in β-Lapachone treated cells; assay type: cell-based, human; conditions: MIA PaCa-2 cells, coincides with induction of pNF45 (T388)
Text: as §1
(§2) β-Lapachone-induced phosphorylation of NF45 is ATM- and DNA-PK-dependent: MIA PaCa-2 cells were pretreated with or without ATM inhibitor KU55933 (10 μM), or DNA-PK inhibitor NU7026 (20 μM), for 1 hr and then treated with β-Lapachone (4 μM) (“Agent A”) for 8 hrs in the presence of inhibitors. Western blot analysis was performed using specific antibodies.

g-H2AX = g-H2AX elevation in treated cells; assay type: cell-based
Text: as §1

DNA topoisomerase II = conditions: cited from earlier work
pNF45 (T388) [2] = assay: Western blot analysis for pNF45 (T388) in MIA PaCa-2 cells; assay type: cell-based, human; conditions: for induction of NF45 phosphorylation, pNF45 (T388) / time course of NF45 phosphorylation: MIA Paca-2 cells; for induction of NF45 phosphorylation, pNF45 (T388): various times; for time course of NF45 phosphorylation: up to 24 hrs
Text: Cell culture and chemicals: MIA PaCa-2 cells were maintained in DMEM medium supplemented with 10% FBS. β-Lapachone and (S)-1′-(3-(4-(tert-butyl)phenoxy)-2-hydroxypropyl)-2H-spiro[naphtho[1,2-b][1,4]oxathiine-3,4′-piperidine]-5,6-dione were synthesized by ArQule, Inc. Doxorubicin, cisplatin, camptohethcin and NU7026 (DNA-PK inhibitor) were purchased from Sigma. KU55933 (ATM inhibitor) was purchased from EMD Chemicals.
Antibody generation: Anti-pNF45 (T388) antibody was generated by Covance (Norwood, Mass.). Briefly, a peptide corresponding to amino acids 383 to 390 (EESME-T-QE) (SEQ ID NO: 2) of NF45 was phosphorylated at threonine 388 in vitro and then conjugated with KHL. Polyclonal antibody was produced from rabbit and passed through affinity column with unphosphorylated peptide and then purified through the column with phosphorylated peptide. Two batches of antibody were obtained: #438 and #439. All the experiments were carried out using #438. Monoclonal antibody are generated by utilizing SEQ ID NO:2 and the hybridoma method known in the art and described herein.
as §1
Knockdown of NF45: Cells were transfected with NF45 On-target plus SMART pool (L-017599-00-0005, Thermo Fisher) or On-Target plus Control siRNA (200 nM, #D-001810-0X, Thermo Fisher) using Oligofectamine (#12252-011, Invitrogen). Cells were used for further examination after 48 hr post transfection.
Threonine Phosphorylation of pNF45 in MIA PaCa-2 Cells is Responsive to β-Lapachone: MIA PaCa-2 cells were treated with or without β-Lapachone (4 μM) (“Agent A”) for 8 hrs and cell lysate was subjected to western blot analysis for the detection of pNF45(T388). […] Samples were then separated into two portions: one for detection of pNF45 (T388) and another for detection of total NF45. C. Cells were transfected with NF45 siRNA or control siRNA and then treated with or without β-Lapachone (4 μM) for 8 hrs.
Time- and concentration-dependent pNF45 (T388) in response to β-Lapachone in MIA PaCa-2 cells: MIA PaCa-2 cells were treated with β-Lapachone (4 μM) (“Agent A”) for various times (A), or for 2 hrs at various concentrations of β-Lapachone (B). Western blot analysis was performed for the detection of pNF45 (T388) and NF45. […] Early induction of pNF45 (T388) was observed within 1 hr and reached peak level between 4 to 8 hrs.
Effect of DNA damage agents on phosphorylation of NF45: To determine whether other DNA damage agents are able to regulate NF45, we treated MIA Paca-2 cells with or without doxorubicin (1 μM), cisplatin (10 μM) or camptothecin (10 μM) for various times. pNF45 (T388) was examined by western blot analysis.

ATM = assay: Western blot, activation of ATM in β-Lapachone treated cells; assay type: cell-based, human; conditions: MIA PaCa-2 cells, coincides with induction of pNF45 (T388)
Text: as §1, §2

[3] = test system: human ovarian cancer, human prostate cancer, human breast cancer, human multiple myeloma; conditions: single agent, xenotransplant mouse models; cited from earlier work
[4] = test system: human prostate and promyelocytic leukemia cancer cell lines; conditions: cited from earlier work
[5] = cited from earlier work
pNF45 (T388) [6] = assay: Immunofluorescence staining of pNF45 (T388) in MIA PaCa-2 cells; assay type: cell-based, human
Protocol: Immunofluorescent Staining: Cells were seeded in 8-well chamber slides and treated with or without β-Lapachone for various time periods and then fixed with 4% paraformaldhyde. pNF45 was detected using anti-pNF45(T388) antibody, and NF45 using anti-NF45 (K-22) antibody. Slides were mounted using Vectashield Mounting Medium with DAPI (#H-1200, Vector Laboratories) and images were obtained using Zeiss fluorescence microscope.
Immunofluorescence staining pNF45 (T388) in response to β-Lapachone: MIA PaCa-2 cells were plated in 8-well chamber slides and treated with β-Lapachone (4 μM) (“Agent A”) for various times. Cells were fixed and stained for either pNF45 (A) or NF45 (B).

[7] = test system: Human breast and ovary carcinoma; conditions: cited from earlier work
pNF45 (T388) [8] = assay: Effect of ATM and DNA-PK inhibitors on NF45 phosphorylation by β-Lapachone in MIA PaCa-2 cells (Western blot); assay type: cell-based, human; conditions: then β-Lapachone 4 μM 8 hrs in presence of inhibitor
Text: as §1, §2

## CC1(C)CCC2=C(O1)c1ccccc1C(=O)C2=O [β-Lapachone, 3,4-dihydro-2,2-dimethyl-2H-naphtho[1,2-b]pyran-5,6-dione]
[1]
  cell death in cancer cells versus normal cells: induces cell death in cancer cells from a variety of tissues without causing death of normal cells from these tissues
CHK2
  CHK2 phosphorylation: CHK2 phosphorylation
DNA-PK
  activation of DNA-PK: activation
g-H2AX
  g-H2AX level: g-H2AX elevation
DNA topoisomerase II
  inhibition of DNA topoisomerase II: inhibits DNA topoisomerase II
pNF45 (T388) [2]; MIA PaCa-2 cells, 4 μM
  time of early induction of pNF45 (T388): ≤ 1 hr
pNF45 (T388) [2]; MIA PaCa-2 cells, 4 μM for various times, or 2 hrs at various concentrations
  time and concentration dependence of pNF45 (T388) induction: time- and concentration-dependent manner
pNF45 (T388) [2]; MIA PaCa-2 cells, 4 μM, 8 hrs
  induction of pNF45 (T388): induced pNF45 (T388)
ATM
  activation of ATM: activation
[3]
  number of tumors, tumor size, survival time: decrease the number of tumors, reduce tumor size, or increase the survival time, or a combination of these
[4]
  induction of cell death: induces cell death with characteristics of apoptosis
[5]
  water solubility: non-water soluble
pNF45 (T388) [6]; MIA PaCa-2 cells, 4 μM
  cellular location of induced pNF45 (T388): primarily located in nuclei
pNF45 (T388) [6]; MIA PaCa-2 cells, 4 μM, various times
  time of induction of pNF45 (T388), immunofluorescence: ≤ 2 hrs
pNF45 (T388) [6]; β-Lapachone treated cells, pNF45 (T388) antibody
  pNF45 (T388) levels, immunofluorescence staining: significant increase
[7]
  cytotoxic effect: showed sensitivity of the cytotoxic effect of β-Lapachone without signs of apoptosis

## N.N.[Cl][Pt][Cl] [cisplatin]
pNF45 (T388) [2]; 10 μM
  induction of NF45 phosphorylation, pNF45 (T388): not cisplatin induced NF45 phosphorylation

## CC[C@@]1(O)C(=O)OCc2c1cc1n(c2=O)Cc2cc3ccccc3nc2-1 [camptothecin]
pNF45 (T388) [2]; 10 μM
  time course of NF45 phosphorylation: steadily increased up to 24 hrs
  induction of NF45 phosphorylation, pNF45 (T388): induced NF45 phosphorylation

## O=c1cc(N2CCOCC2)oc2c1ccc1ccccc12 [NU7026]
pNF45 (T388) [8]; inhibitor 20 μM pretreated 1 hr
  effect of DNA-PK inhibitor on β-Lapachone-induced phosphorylation of NF45: phosphorylation of NF45 induced by β-Lapachone is ATM and DNA-PK dependent

## O=c1cc(-c2cccc3c2Sc2ccccc2S3)oc(N2CCOCC2)c1 [KU55933]
pNF45 (T388) [8]; inhibitor 10 μM pretreated 1 hr
  effect of ATM inhibitor on β-Lapachone-induced phosphorylation of NF45: phosphorylation of NF45 induced by β-Lapachone is ATM and DNA-PK dependent

## COc1cccc2c1C(=O)c1c(O)c3c(c(O)c1C2=O)C[C@@](O)(C(=O)CO)C[C@@H]3O[C@H]1C[C@H](N)[C@H](O)[C@H](C)O1 [doxorubicin]
pNF45 (T388) [2]; 1 μM
  time course of NF45 phosphorylation: steadily increased up to 24 hrs
  induction of NF45 phosphorylation, pNF45 (T388): induced NF45 phosphorylation
